According to patent US20080108085A1 (priority 2001, published 2008):
Like-named read-outs stand apart in the source and are kept apart here.

System: surface-bound mouse prions (RML)
Settings: for Incubation time s.d. / Sick/total: Table 4, infectious wires treated: sodium hydroxide 1M 1 h, formaldehyde 10% 1 h, guanidinium thiocyanate 4M 16 h, 25° C.; for Infectivity of treated prion-coated wires: sodium hydroxide 1 M 1 h, guanidinium thiocyanate 4 M 16 h, formaldehyde 10%

Row | SMILES | Incubation time s.d. | Sick/total | Infectivity of treated prion-coated wires | Incubation time s.d. (listed as formaldehyde)
1 | N#CS.N=C(N)N [Guanidinium thiocyanate] | >260 days | 0/6 | completely non-infectious | –
2 | [Na+].[OH-] [Sodium hydroxide] | >260 days | 0/6 | completely non-infectious | –
3 | C=O [Formaldehyde] | 92 ± 8 days | 6/6 | – | 92 ± 8 days
